Laboratory results from patent publication US20250092039A1, “GLUTARIMIDE-CONTAINING PAN-KRAS-MUTANT DEGRADER COMPOUNDS AND USES THEREOF” (Tiger Biotherapeutics Inc., priority 2022, published 2025).

Legend:
KRAS-G12V/RAF1 = KRAS-G12V/RAF1 (Homo sapiens (Human), UniProt P01116, G12V); assay: KRAS/RAF1 binding inhibition assay (AlphaScreen)
In short: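 Binding of GppNHp-loaded KRAS G12V to the RAF1 RBD was measured by AlphaScreen with test compound present in 2% DMSO (final), 60 min incubation at 4° C. Signals were converted to % inhibition versus DMSO, and IC50 was obtained by variable-slope nonlinear regression.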

SW620 cells = assay: 3D cell growth inhibition of SW620 cells carrying endogenous KRAS G12V mutation (CellTiter-Glo 3D, GI50); assay type: cell-based; details: Homo sapiens, SW-620, 144 h; SW620 cells, 6 days; read-out: SW620 3D cell growth GI50
In short: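 SW620 cells (endogenous KRAS G12V) grown in 3D were dosed next day with compound from DMSO stocks at various concentrations, then incubated 6 days at 37° C.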

KRAS G12V = KRAS G12V (Homo sapiens (Human), UniProt P01116, G12V); assay: KRAS G12V degradation in SW620 cells (Western blot, DC50); assay type: cell-based; details: 24 hours
In short: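 SW620 cells (homozygous KRAS G12V) were treated with compound for 24 hours at 37° C. KRAS in lysates was measured by Western blot with fluorescent secondary antibodies and expressed relative to DMSO vehicle (100%). DC50 came from a four-parameter variable-slope dose-response fit.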

Chain of KRAS G12V (P01116-2 other isoform, or with tags, fused parts or gaps G12V): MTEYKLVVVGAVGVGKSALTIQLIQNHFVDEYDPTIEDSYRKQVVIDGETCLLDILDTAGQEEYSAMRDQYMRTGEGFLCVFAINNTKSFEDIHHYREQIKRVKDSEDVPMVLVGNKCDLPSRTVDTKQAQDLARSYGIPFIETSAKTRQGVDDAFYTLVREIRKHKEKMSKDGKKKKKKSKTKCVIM
Chain of KRAS-G12V/RAF1 (P01116-2 other isoform, or with tags, fused parts or gaps G12V): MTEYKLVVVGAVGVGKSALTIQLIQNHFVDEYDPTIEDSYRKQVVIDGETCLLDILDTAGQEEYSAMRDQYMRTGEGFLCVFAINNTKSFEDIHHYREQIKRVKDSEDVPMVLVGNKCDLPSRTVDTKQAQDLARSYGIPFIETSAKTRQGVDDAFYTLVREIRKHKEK

Row | IC50 (KRAS-G12V/RAF1) | GI50 (SW620 cells) | DC50 (KRAS G12V) | SMILES
1 | 20 to 200 nM | < 10 nM | 1 to 10 nM | C[C@@]1(O)CCCN(c2nc(OCC3(CN4CCC5(CC4)CC(N4CCN(c6ccc7c(c6)CN([C@H]6CCC(=O)NC6=O)C7=O)CC4)C5)CC3)nc3c(F)c(-c4cc(O)cc5ccc(F)c(F)c45)ncc23)C1 [Compound 170, (S)-3-(5-(4-(7-((1-(((7-(7,8-difluoro-3-hydroxynaphthalen-1-yl)-8-fluoro-4-((R)-3-hydroxy-3-methylpiperidin-1-yl)pyrido[4,3-d]pyrimidin-2-yl)oxy)methyl)cyclopropyl)methyl)-7-azaspiro[3.5]nonan-2-yl)piperazin-1-yl)-1-oxoisoindolin-2-yl)piperidine-2,6-dione]
2 | 20 to 200 nM | 10 to 100 nM | > 100 nM | CCc1c(F)ccc2cc(O)cc(-c3ncc4c(N5CCC[C@@](C)(O)C5)nc(OCC5(CN6CCN(C7CCC8(CC7)CCN(c7ccc9c(c7)CN(C7CCC(=O)NC7=O)C9=O)CC8)CC6)CC5)nc4c3F)c12 (stereo partly drawn) [Compound 171, 3-(5-(9-(4-((1-(((7-(8-ethyl-7-fluoro-3-hydroxynaphthalen-1-yl)-8-fluoro-4-((R)-3-hydroxy-3-methylpiperidin-1-yl)pyrido[4,3-d]pyrimidin-2-yl)oxy)methyl)cyclopropyl)methyl)piperazin-1-yl)-3-azaspiro[5.5]undecan-3-yl)-1-oxoisoindolin-2-yl)piperidine-2,6-dione]
3 | < 20 nM | < 10 nM | 1 to 10 nM | CCc1c(F)ccc2cc(O)cc(-c3ncc4c(N5CCC[C@@](C)(O)C5)nc(OCC5(CN6CC7(CCN(C8CN(c9ccc%10c(c9)CN(C9CCC(=O)NC9=O)C%10=O)C8)CC7)C6)CC5)nc4c3F)c12 (stereo partly drawn) [Compound 172, 3-(5-(3-(2-((1-(((7-(8-ethyl-7-fluoro-3-hydroxynaphthalen-1-yl)-8-fluoro-4-((R)-3-hydroxy-3-methylpiperidin-1-yl)pyrido[4,3-d]pyrimidin-2-yl)oxy)methyl)cyclopropyl)methyl)-2,7-diazaspiro[3.5]nonan-7-yl)azetidin-1-yl)-1-oxoisoindolin-2-yl)piperidine-2,6-dione]
4 | 20 to 200 nM | < 10 nM | < 1 nM | CCc1cccc2cc(O)cc(-c3ncc4c(N5CCC[C@@](C)(O)C5)nc(OCC5(CN6CCC7(CC6)CC(F)(CN6CCN(c8ccc9c(c8)CN([C@H]8CCC(=O)NC8=O)C9=O)CC6)C7)CC5)nc4c3F)c12 [Compound 173, (S)-3-(5-(4-((7-((1-(((7-(8-ethyl-3-hydroxynaphthalen-1-yl)-8-fluoro-4-((R)-3-hydroxy-3-methylpiperidin-1-yl)pyrido[4,3-d]pyrimidin-2-yl)oxy)methyl)cyclopropyl)methyl)-2-fluoro-7-azaspiro[3.5]nonan-2-yl)methyl)piperazin-1-yl)-1-oxoisoindolin-2-yl)piperidine-2.6-dione]
5 | 20 to 200 nM | < 10 nM | < 1 nM | C[C@@]1(O)CCCN(c2nc(OCC3(CN4CCC5(CC4)CC(F)(CN4CCN(c6ccc7c(c6)CN([C@H]6CCC(=O)NC6=O)C7=O)CC4)C5)CC3)nc3c(F)c(-c4cc(O)cc5ccc(F)c(F)c45)ncc23)C1 [Compound 174, (S)-3-(5-(4-((7-((1-(((7-(7,8-difluoro-3-hydroxynaphthalen-1-yl)-8-fluoro-4-((R)-3-hydroxy-3-methylpiperidin-1-yl)pyrido[4,3-d]pyrimidin-2-yl)oxy)methyl)cyclopropyl)methyl)-2-fluoro-7-azaspiro[3.5]nonan-2-yl)methyl)piperazin-1-yl)-1-oxoisoindolin-2-yl)piperidine-2,6-dione]
6 | < 20 nM | < 10 nM | < 1 nM | CCc1c(F)ccc2cc(O)cc(-c3ncc4c(N5CCOC[C@@](C)(O)C5)nc(OCC5(CN6CCC7(CC6)CC(F)(CN6CCN(c8ccc9c(c8)CN([C@H]8CCC(=O)NC8=O)C9=O)CC6)C7)CC5)nc4c3F)c12 [Compound 175, (S)-3-(5-(4-((7-((1-(((7-(8-ethyl-7-fluoro-3-hydroxynaphthalen-1-yl)-8-fluoro-4-((S)-6-hydroxy-6-methyl-1,4-oxazepan-4-yl)pyrido[4,3-d]pyrimidin-2-yl)oxy)methyl)cyclopropyl)methyl)-2-fluoro-7-azaspiro[3.5]nonan-2-yl)methyl)piperazin-1-yl)-1-oxoisoindolin-2-yl)piperidine-2,6-dione]
7 | 20 to 200 nM | < 10 nM | < 1 nM | CCc1c(F)ccc2cc(O)cc(-c3ncc4c(N5CCC[C@@](C)(O)C5)nc(OCC5(CN6CCC7(CC6)CC(OC6CCN(c8ccc9c(c8)CN(C8CCC(=O)NC8=O)C9=O)CC6)C7)CC5)nc4c3F)c12 (stereo partly drawn) [Compound 176, 3-(5-(4-((7-((1-(((7-(8-ethyl-7-fluoro-3-hydroxynaphthalen-1-yl)-8-fluoro-4-((R)-3-hydroxy-3-methylpiperidin-1-yl)pyrido[4,3-d]pyrimidin-2-yl)oxy)methyl)cyclopropyl)methyl)-7-azaspiro[3.5]nonan-2-yl)oxy)piperidin-1-yl)-1-oxoisoindolin-2-yl)piperidine-2,6-dione]
8 | > 200 nM | 10 to 100 nM | > 100 nM | C[C@@]1(O)CCCN(c2nc(OCC3(CN4CC5(CCC(F)(CN6CCN(c7ccc8c(c7)CN([C@H]7CCC(=O)NC7=O)C8=O)CC6)CC5)C4)CC3)nc3c(F)c(-c4cc(O)cc5ccc(F)c(F)c45)ncc23)C1 [Compound 177, (S)-3-(5-(4-((2-((1-(((7-(7,8-difluoro-3-hydroxynaphthalen-1-yl)-8-fluoro-4-((R)-3-hydroxy-3-methylpiperidin-1-yl)pyrido[4,3-d]pyrimidin-2-yl)oxy)methyl)cyclopropyl)methyl)-7-fluoro-2-azaspiro[3.5]nonan-7-yl)methyl)piperazin-1-yl)-1-oxoisoindolin-2-yl)piperidine-2,6-dione]
9 | 20 to 200 nM | < 10 nM | < 1 nM | CCc1c(F)ccc2cc(O)cc(-c3ncc4c(N5CCC[C@@](C)(O)C5)nc(OCC5(CN6CC7(CCC(F)(CN8CCN(c9ccc%10c(c9)CN([C@H]9CCC(=O)NC9=O)C%10=O)CC8)CC7)C6)CC5)nc4c3F)c12 [Compound 178, (S)-3-(5-(4-((2-((1-(((7-(8-ethyl-7-fluoro-3-hydroxynaphthalen-1-yl)-8-fluoro-4-((R)-3-hydroxy-3-methylpiperidin-1-yl)pyrido[4,3-d]pyrimidin-2-yl)oxy)methyl)cyclopropyl)methyl)-7-fluoro-2-azaspiro[3.5]nonan-7-yl)methyl)piperazin-1-yl)-1-oxoisoindolin-2-yl)piperidine-2,6-dione]
10 | 20 to 200 nM | 10 to 100 nM | > 100 nM | CCc1c(F)ccc2cc(O)cc(-c3ncc4c(N5CCC[C@@](C)(O)C5)nc(OCC5(CN6CCC7(CC6)CC(F)(CN6CCN(c8ccc(C(=O)N[C@H]9CCC(=O)NC9=O)c(F)c8)CC6)C7)CC5)nc4c3F)c12 [Compound 180, N-((S)-2,6-dioxopiperidin-3-yl)-4-(4-((7-((1-(((7-(8-ethyl-7-fluoro-3-hydroxynaphthalen-1-yl)-8-fluoro-4-((R)-3-hydroxy-3-methylpiperidin-1-yl)pyrido[4,3-d]pyrimidin-2-yl)oxy)methyl)cyclopropyl)methyl)-2-fluoro-7-azaspiro[3.5]nonan-2-yl)methyl)piperazin-1-yl)-2-fluorobenzamide]
11 | > 200 nM | < 10 nM | < 1 nM | CCc1cccc2cc(O)cc(-c3ncc4c(N5CCC[C@@](C)(O)C5)nc(OCC5(CN6CCC(OC7CC8(CCN(c9ccc%10c(c9)CN(C9CCC(=O)NC9=O)C%10=O)CC8)C7)CC6)CC5)nc4c3F)c12 (stereo partly drawn) [Compound 181, 3-(5-(2-((1-((1-(((7-(8-ethyl-3-hydroxynaphthalen-1-yl)-8-fluoro-4-((R)-3-hydroxy-3-methylpiperidin-1-yl)pyrido[4,3-d]pyrimidin-2-yl)oxy)methyl)cyclopropyl)methyl)piperidin-4-yl)oxy)-7-azaspiro[3.5]nonan-7-yl)-1-oxoisoindolin-2-yl)piperidine-2,6-dione]
12 | > 200 nM | 10 to 100 nM | > 100 nM | CCc1c(F)ccc2cc(O)cc(-c3ncc4c(N5CCC[C@@](C)(O)C5)nc(OCC5(CN6CC7(CCC(F)(CN8CCN(c9ccc(C(=O)N[C@H]%10CCC(=O)NC%10=O)c(F)c9)CC8)CC7)C6)CC5)nc4c3F)c12 [Compound 183, N-((S)-2,6-dioxopiperidin-3-yl)-4-(4-((2-((1-(((7-(8-ethyl-7-fluoro-3-hydroxynaphthalen-1-yl)-8-fluoro-4-((R)-3-hydroxy-3-methylpiperidin-1-yl)pyrido[4,3-d]pyrimidin-2-yl)oxy)methyl)cyclopropyl)methyl)-7-fluoro-2-azaspiro[3.5]nonan-7-yl)methyl)piperazin-1-yl)-2-fluorobenzamide]
13 | > 200 nM | < 10 nM | < 1 nM | CCc1c(F)ccc2cc(O)cc(-c3ncc4c(N5CCC[C@@](C)(O)C5)nc(OCC5(CN6CCC7(CC6)CC(C6CCN(c8ccc9c(c8)CN(C8CCC(=O)NC8=O)C9=O)CC6)C7)CC5)nc4c3F)c12 (stereo partly drawn) [Compound 186, 3-(5-(4-(7-((1-(((7-(8-ethyl-7-fluoro-3-hydroxynaphthalen-1-yl)-8-fluoro-4-((R)-3-hydroxy-3-methylpiperidin-1-yl)pyrido[4,3-d]pyrimidin-2-yl)oxy)methyl)cyclopropyl)methyl)-7-azaspiro[3.5]nonan-2-yl)piperidin-1-yl)-1-oxoisoindolin-2-yl)piperidine-2,6-dione]
